Experimental data: patent US20250276026A1, “TRANSIENT COMMENSAL MICROORGANISM FOR IMPROVING GUT HEALTH” (INFINANT HEALTH, INC, priority 2016, published 2025)

Test system: Clostridium difficile
Test: Outbreak of Clostridium difficile hemorrhagic diarrhea in newborn foals; probiotic formulation vs standard of care
Type: in vivo
Conditions: all animals dosed at birth with 6.6 mg/kg
Protocol: Newborn foals born to mares at a large horse breeding barn were monitored during an outbreak of severe hemorrhagic diarrhea among the foals. […] Seventeen foals were born during the initial phase of the outbreak, of which fifteen animals became ill and required intervention according to the standard of care as described in the Merck Veterinary Manual. Standard of care involved metronidazole treatment given at a dose of 15-20 mg/kg, PO, tid-qid. and may also involve administration of large volumes of interveneous polyionic fluids, with supplemental electrolytes (potassium, magnesium, and calcium), plasma or synthetic colloids for low oncotic pressure, anti-inflammatoires such as flunixin meglumine, and broad-spectrum antibiotics if the horse is leukopenic and at risk of bacterial translocation across the compromised GI tract. Polymyxin B may aid in binding systemic endotoxin.
Of these seventeen foals, fifteen developed loose stool or diarrhea lasting 3-4 days, and 2 died as a result of the infection. After observing the outbreak, the next foals were provided a formulation of 3×10^12 CFU Bifidobacterium longum subsp. infantis EVBL001 and 5×10^9 CFU of Lactobacillus plantarum EVLP001 every 12 hours. The two foals that were provided with the formulation at 12 hours of age developed a mild diarrhea, but recovered within 8 hours compared to 3-4 days with standard of care. […]

CO/N=C(\C(=O)N[C@@H]1C(=O)N2C(C(=O)O)=C(CSC(=O)c3ccco3)CS[C@H]12)c1csc(N)n1 [ceftiofur]
effect on health outcome related to diarrhea: did not affect health outcome
